Assay results: patent US20260125375A1 (Pfizer Inc., priority 2022, published 2026)

Key:
C-CBL (residues 46-435) = target: T1, C-CBL (residues 46-435) (Homo sapiens, UniProt P22681); assay: Ligand Displacement Assay (LDA), HTRF competitive binding against BODIPY-labeled fluorescent tracer, C-CBL; conditions: geometric mean of the number of tests, read-out: C-CBL Ki (nM) GMean
T1 construct: Purified CBL-B (residues 36-427) and C-CBL (residues 46-435) proteins from baculovirus-infected insect cells; made in house; host or cells: baculovirus-infected insect cells
T1 sequence (P22681 46-435): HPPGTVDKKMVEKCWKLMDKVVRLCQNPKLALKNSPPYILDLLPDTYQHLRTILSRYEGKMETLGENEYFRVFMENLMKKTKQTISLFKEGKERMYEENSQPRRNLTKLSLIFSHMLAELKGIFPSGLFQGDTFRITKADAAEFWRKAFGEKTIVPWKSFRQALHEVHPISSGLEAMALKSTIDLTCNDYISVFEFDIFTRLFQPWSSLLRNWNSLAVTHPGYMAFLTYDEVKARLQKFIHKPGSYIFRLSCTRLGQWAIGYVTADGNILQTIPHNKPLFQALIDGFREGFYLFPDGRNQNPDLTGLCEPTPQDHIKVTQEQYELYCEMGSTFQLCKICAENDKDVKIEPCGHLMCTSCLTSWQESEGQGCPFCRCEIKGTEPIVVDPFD
Outline: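 Terbium-streptavidin donor on BirA-biotinylated, AviTagged protein from baculovirus-infected insect cells; BODIPY tracer as acceptor. Compound titrations were three-fold and duplicated, […] with 2% DMSO final.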

WT CBL-B (36-427) = target: T2, WT CBL-B (36-427) (Homo sapiens, UniProt Q13191); assay: Surface Plasmon Resonance (SPR) assay, binding affinity and kinetics, CBL-B; conditions: SPR at 10° C., biotinylated WT CBL-B (36-427) on streptavidin chip; geometric mean; read-out: CBL-B SPR Kd (nM) GMean
T2 construct: N-terminal biotinylated WT CBL-B (36-427) and C-CBL (46-435) were captured on a streptavidin (SA) coated sensor chip
Outline: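 Biotinylated WT CBL-B (36-427) or C-CBL (46-435) captured on streptavidin chip (~5000–6000 RU); binding at 10° C in HEPES buffer pH 7.2 with 2% DMSO. Multi-cycle: 2-fold, 10-point series from 10 or 100 μM, 90 s association. Single-cycle: 3-fold, 6-point, 0.001–1 μM, 120 s association, >5400 s dissociation.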

| Structure (SMILES) | Ki (C-CBL (residues 46-435)) [nM] | Kd (WT CBL-B (36-427)) [nM] |
| --- | --- | --- |
| CC(c1nc(C(F)(F)F)cc2c(-c3cccc(C4(Cc5nncn5C)COC4)c3)n[nH]c12)N1CCOCC1 (single isomer, unassigned) [Example C23, 3-(3-{3-[(4-methyl-4H-1,2,4-triazol-3-yl)methyl]oxetan-3-yl}phenyl)-7-[(1ξ)-1-(morpholin-4-yl)ethyl]-5-(trifluoromethyl)-1H-pyrazolo[3,4-c]pyridine] | 24.8 | 5.1 |
| CC(c1nc(C(F)(F)F)cc2c(-c3cccc(C4(Cc5nncn5C)COC4)c3)n[nH]c12)N1C[C@@H](F)[C@H](F)C1 (single isomer, unassigned) [Example C25] | 33.1 | 1.8 |
| Cn1cnnc1[C@@H](c1cccc(-c2n[nH]c3cnc(C(F)(F)F)cc23)c1)C1CCC1 [Example A1, 3-{3-[(R)-cyclobutyl(4-methyl-4H-1,2,4-triazol-3-yl)methyl]phenyl}-5-(trifluoromethyl)-1H-pyrazolo[3,4-c]pyridine] | 681 | 34.6 |
| C[C@@H](N[C@H]1C[C@@H](F)C1)c1nc(C(F)(F)F)cc2c(-c3cccc([C@H](c4nncn4C)C4CCC4)c3)n[nH]c12 (single isomer, unassigned) [Example C96] | 53.5 | 3.3 |
| CC(c1nc(C(F)(F)F)cc2c(-c3cccc(C4(Cc5nncn5C)COC4)c3)n[nH]c12)N1CCC[C@H](C)C1 (single isomer, unassigned) [Example C20] | 16.9 | 1.2 |
| C[C@H](N[C@H]1C[C@@H](O)C1)c1nc(C(F)(F)F)cc2c(-c3cccc([C@H](c4nncn4C)C4CCC4)c3)n[nH]c12 (single isomer, unassigned) [Example C36] | 16.8 | 2 |
| C[C@H](N[C@H]1CCC[C@@H]1O)c1nc(C(F)(F)F)cc2c(-c3cccc([C@H](c4nncn4C)C4CCC4)c3)n[nH]c12 (single isomer, unassigned) [Example C47] | 5 | 1.6 |
| CC1CN(Cc2nc(C(F)(F)F)cc3c(-c4cccc(C5(Cc6nncn6C)COC5)c4)n[nH]c23)CCC1(F)F (single isomer, unassigned) [Example C31, 7-{[(3ξ)-4,4-difluoro-3-methylpiperidin-1-yl]methyl}-3-(3-{3-[(4-methyl-4H-1,2,4-triazol-3-yl)methyl]oxetan-3-yl}phenyl)-5-(trifluoromethyl)-1H-pyrazolo[3,4-c]pyridine] | 112 | 4.7 |
| C[C@H](N[C@@H]1CCC(F)(F)C1)c1nc(C(F)(F)F)cc2c(-c3cccc(C4(Cc5nncn5C)COC4)c3)n[nH]c12 (single isomer, unassigned) [Example C17] | 24.8 | 1.8 |
| Cn1cnnc1CC1(c2cccc(-c3n[nH]c4c(CN5CCCCC5)nc(C(F)(F)F)cc34)c2)COC1 [Example C33, 3-(3-{3-[(4-methyl-4H-1,2,4-triazol-3-yl)methyl]oxetan-3-yl}phenyl)-7-[(piperidin-1-yl)methyl]-5-(trifluoromethyl)-1H-pyrazolo[3,4-c]pyridine] | 111 | 6.8 |
| Cn1cnnc1[C@@H](c1cccc(-c2n[nH]c3c(CN[C@@H]4CCC[C@@H]4O)nc(C(F)(F)F)cc23)c1)C1CCC1 [Example C1, (1S,2R)-2-({[3-{3-[(R)-cyclobutyl(4-methyl-4H-1,2,4-triazol-3-yl)methyl]phenyl}-5-(trifluoromethyl)-1H-pyrazolo[3,4-c]pyridin-7-yl]methyl}amino)cyclopentan-1-ol] | 7.1 | 1.2 |
| C[C@@H](N[C@@H]1CCOC1)c1nc(C(F)(F)F)cc2c(-c3cccc([C@H](c4nncn4C)C4CCC4)c3)n[nH]c12 (single isomer, unassigned) [Example D3] | 69.7 | 4 |
| CC(NC1CNC1)c1nc(C(F)(F)F)cc2c(-c3cccc(C4(Cc5nncn5C)COC4)c3)n[nH]c12 (single isomer, unassigned) [Example C27, N-{(1ξ)-1-[3-(3-{3-[(4-methyl-4H-1,2,4-triazol-3-yl)methyl]oxetan-3-yl}phenyl)-5-(trifluoromethyl)-1H-pyrazolo[3,4-c]pyridin-7-yl]ethyl}azetidin-3-amine] | 76 | 8.7 |
| C[C@@H](N[C@H]1CC[C@@H]1O)c1nc(C(F)(F)F)cc2c(-c3cccc([C@H](c4nncn4C)C4CCC4)c3)n[nH]c12 (single isomer, unassigned) [Example D22] | 5.8 | 1.5 |
| C[C@H](NC1CC[C@H]1O)c1nc(C(F)(F)F)cc2c(-c3cccc([C@H](c4nncn4C)C4CCC4)c3)n[nH]c12 (single isomer, unassigned) [Example D30] | 5.1 | 1.1 |
| C[C@@H](c1nc(C(F)(F)F)cc2c(-c3cccc(C4(Cc5nncn5C)COC4)c3)n[nH]c12)N1CC[C@@H](F)C1 (single isomer, unassigned) [Example D9] | 71.8 | 8.3 |
| C[C@@H](N[C@H]1C[C@@H](O)C1)c1nc(C(F)(F)F)cc2c(-c3cccc([C@H](c4nncn4C)C4CCC4)c3)n[nH]c12 (single isomer, unassigned) [Example C37] | 50.6 | 3.3 |
| C[C@@H]1CCCN([C@@H](C)c2nc(C(F)(F)F)cc3c(-c4cccc(C5(Cc6nncn6C)COC5)c4)n[nH]c23)C1 (single isomer, unassigned) [Example D13] | 53.6 | 3.5 |
| Cn1cnnc1CC1(c2cccc(-c3n[nH]c4ncc(C(F)(F)F)cc34)c2)COC1 [Example B3, 3-(3-{3-[(4-methyl-4H-1,2,4-triazol-3-yl)methyl]oxetan-3-yl}phenyl)-5-(trifluoromethyl)-1H-pyrazolo[3,4-b]pyridine] | 363 | 67.9 |
| C[C@@H](N[C@H]1C[C@H](O)C1)c1nc(C(F)(F)F)cc2c(-c3cccc([C@H](c4nncn4C)C4CCC4)c3)n[nH]c12 (single isomer, unassigned) [Example C92] | 50 | 2.7 |
| C[C@@H]1CCCN([C@H](C)c2nc(C(F)(F)F)cc3c(-c4cccc(C5(Cc6nncn6C)COC5)c4)n[nH]c23)C1 (single isomer, unassigned) [Example D14] | 183 | 11.1 |
| Cn1cnnc1[C@@H](c1cccc(-c2n[nH]c3c(CN[C@H]4CCOC4)nc(C(F)(F)F)cc23)c1)C1CCC1 [Example D1, (3S)—N-{[3-{3-[(R)-cyclobutyl(4-methyl-4H-1,2,4-triazol-3-yl)methyl]phenyl}-5-(trifluoromethyl)-1H-pyrazolo[3,4-c]pyridin-7-yl]methyl}oxolan-3-amine] | 210 | 3.7 |
| C[C@H](c1nc(C(F)(F)F)cc2c(-c3cccc(C4(Cc5nncn5C)COC4)c3)n[nH]c12)N1CCC(F)(F)C1 (single isomer, unassigned) [Example D6] | 21 | 1.8 |
| C[C@H]1CN(Cc2nc(C(F)(F)F)cc3c(-c4cccc([C@H](c5nncn5C)C5CCC5)c4)n[nH]c23)CCO1 [Example C6, 3-{3-[(R)-cyclobutyl(4-methyl-4H-1,2,4-triazol-3-yl)methyl]phenyl}-7-{[(2S)-2-methylmorpholin-4-yl]methyl}-5-(trifluoromethyl)-1H-pyrazolo[3,4-c]pyridine] | 256 | 4.4 |
| CC(c1nc(C(F)(F)F)cc2c(-c3cccc(C4(Cc5nncn5C)COC4)c3)n[nH]c12)N1CCCCC1 (single isomer, unassigned) [Example C21, 3-(3-{3-[(4-methyl-4H-1,2,4-triazol-3-yl)methyl]oxetan-3-yl}phenyl)-7-[(1ξ)-1-(piperidin-1-yl)ethyl]-5-(trifluoromethyl)-1H-pyrazolo[3,4-c]pyridine] | 93.5 | 13.7 |
| Cn1cnnc1CC1(c2cccc(-c3n[nH]c4cnc(C(F)(F)F)cc34)c2)COC1 [Example B1, 3-(3-(3-((4-methyl-4H-1,2,4-triazol-3-yl)methyl)oxetan-3-yl)phenyl)-5-(trifluoromethyl)-1H-pyrazolo[3,4-c]pyridine] | 283 | 49.5 |
| C[C@H]1CCCN(Cc2nc(C(F)(F)F)cc3c(-c4cccc([C@H](c5nncn5C)C5CCC5)c4)n[nH]c23)C1 [Example C7, 3-{3-[(R)-cyclobutyl(4-methyl-4H-1,2,4-triazol-3-yl)methyl]phenyl}-7-{[(3S)-3-methylpiperidin-1-yl]methyl}-5-(trifluoromethyl)-1H-pyrazolo[3,4-c]pyridine] | 53.1 | 2.7 |
| C[C@H](NC1CCCC1)c1nc(C(F)(F)F)cc2c(-c3cccc([C@H](c4nncn4C)C4CCC4)c3)n[nH]c12 (single isomer, unassigned) [Example C10] | 108 | 11.5 |
